Results reported in the NIST ThermoML archive (doi:10.1016/j.fluid.2017.12.010).

Assay: xn = mol fraction of the nth substance listed
Conditions: Liquid, Vibrating tube method, x1 = 1

CCCCCCCCCC [decane] + CCCCCCCCCCCC
Conditions	mass density [kg/m3]
283.55 K, 5000 kPa	742
283.56 K, 3000 kPa	740
283.56 K, 20000 kPa	752
283.56 K, 30000 kPa	758
283.56 K, 40000 kPa	763
283.56 K, 50000 kPa	769
283.56 K, 60000 kPa	774
283.56 K, 70000 kPa	779
283.56 K, 80000 kPa	783
283.56 K, 90000 kPa	788
283.57 K, 1000 kPa	739
283.57 K, 10000 kPa	745
283.58 K, 100 kPa	738
293.48 K, 100 kPa	731
293.48 K, 1000 kPa	731
293.49 K, 5000 kPa	734
293.49 K, 10000 kPa	738
293.49 K, 20000 kPa	745
293.5 K, 30000 kPa	751
293.5 K, 40000 kPa	757
293.5 K, 50000 kPa	763
293.5 K, 100000 kPa	787
293.51 K, 60000 kPa	768
293.51 K, 70000 kPa	773
293.51 K, 80000 kPa	778
293.51 K, 90000 kPa	783
303.42 K, 100 kPa	723
303.42 K, 1000 kPa	724
303.42 K, 10000 kPa	731
303.42 K, 30000 kPa	745
303.42 K, 40000 kPa	751
303.42 K, 70000 kPa	768
303.42 K, 80010 kPa	773
303.42 K, 90000 kPa	777
303.43 K, 5000 kPa	727
303.43 K, 20000 kPa	738
303.43 K, 50000 kPa	757
303.43 K, 60000 kPa	762
303.43 K, 100000 kPa	782
313.35 K, 100 kPa	716
313.35 K, 1000 kPa	717
313.35 K, 5000 kPa	721
313.35 K, 40000 kPa	746
313.36 K, 20000 kPa	732
313.36 K, 50000 kPa	752
313.36 K, 70000 kPa	763
313.36 K, 80000 kPa	768
313.36 K, 90000 kPa	773
313.36 K, 100000 kPa	777
313.37 K, 10000 kPa	725
313.37 K, 30000 kPa	739
313.37 K, 60000 kPa	757
323.24 K, 100 kPa	708
323.24 K, 1000 kPa	709
323.24 K, 100000 kPa	771
323.25 K, 5000 kPa	712
323.25 K, 10000 kPa	717
323.25 K, 20000 kPa	725
323.25 K, 30000 kPa	732
323.25 K, 40000 kPa	739
323.25 K, 50000 kPa	745
323.25 K, 60000 kPa	751
323.25 K, 70000 kPa	757
323.25 K, 80000 kPa	762
323.25 K, 90000 kPa	767
333.12 K, 5000 kPa	705
333.12 K, 10000 kPa	710
333.12 K, 20000 kPa	718
333.13 K, 100 kPa	700
333.13 K, 1000 kPa	701
333.13 K, 30000 kPa	726
333.13 K, 80000 kPa	757
333.13 K, 90000 kPa	762
333.13 K, 100000 kPa	767
333.14 K, 40000 kPa	733
333.14 K, 50000 kPa	740
333.14 K, 60000 kPa	746
333.14 K, 70000 kPa	751
343.01 K, 100 kPa	693
343.01 K, 1000 kPa	694
343.01 K, 10000 kPa	703
343.01 K, 20000 kPa	712
343.01 K, 30000 kPa	720
343.01 K, 40000 kPa	727
343.01 K, 50000 kPa	734
343.01 K, 60000 kPa	740
343.02 K, 5000 kPa	698
343.02 K, 70000 kPa	746
343.02 K, 80000 kPa	752
343.02 K, 90000 kPa	757
343.02 K, 100000 kPa	762
352.87 K, 100 kPa	686
352.87 K, 1000 kPa	687
352.87 K, 5000 kPa	691
352.88 K, 10000 kPa	696
352.88 K, 20000 kPa	706
352.88 K, 30000 kPa	714
352.88 K, 40000 kPa	722
352.88 K, 50000 kPa	729
352.88 K, 60000 kPa	735
352.89 K, 70000 kPa	741
352.89 K, 80000 kPa	747
352.89 K, 90000 kPa	753
352.89 K, 100000 kPa	758
362.69 K, 100 kPa	677
362.69 K, 1000 kPa	678
362.7 K, 5000 kPa	683
362.7 K, 10000 kPa	689
362.71 K, 20000 kPa	699
362.71 K, 30000 kPa	708
362.71 K, 40000 kPa	716
362.71 K, 50000 kPa	723
362.71 K, 60000 kPa	730
362.72 K, 70000 kPa	736
362.72 K, 80000 kPa	742
362.72 K, 90000 kPa	747
362.72 K, 100000 kPa	753
